According to paper PMC12679539, “Synthesis and evaluation of nitroheterocyclic aromatic adamantane amides with trypanocidal activity. Part II” (RSC Medicinal Chemistry, 2025):

Assays:
[1] = Cytotoxicity on THP-1-derived macrophages (MTT assay); type: cell-based; settings: human, THP-1-derived macrophages (PMA-differentiated), value or interval
Protocol: The THP-1 cell line, a human leukemia line (ATCC® TIB-202™), was cultured in RPMI-1640 medium supplemented with 10% heat-inactivated fetal bovine serum (FBS), 2 mM. L-Glutamine, 100 IU mL^−1 penicillin/streptomycin, and 20 mM HEPES. The cells were maintained in a humidified incubator at 37 °C with 5% CO2. Subculturing was performed every three days, using 20 mL of media at a concentration of 2 × 10^5 cells per mL in a T75 flask. All cell culture reagents were purchased from Lonza Bioscience (Morrisville, NC).
The cytotoxicity of the compounds on THP-1-derived macrophages was evaluated using the colorimetric MTT assay (3-(4,5-dimethylthiazol-2-yl)-2,5-diphenyltetrazolium bromide), as described in Magoulas et al. (2021).[28] THP-1 cells were suspended in complete RPMI medium at a density of 1 × 10^6 cells per mL, and 100 μL of this suspension was seeded into each well of a 96-well plate. The cells were differentiated into macrophages by adding 40 ng mL^−1 of phorbol-myristate 13-acetate (PMA, Sigma, Saint Louis, MI, USA) for 24 hours, followed by replacement with fresh medium for an additional 24 hours. Subsequently, the cells were incubated with 100 μL of various compounds, diluted in complete RPMI medium, at concentrations ranging from 100 to 12.5 μM. Each condition was tested in triplicate. After 72 hours of incubation at 37 °C with 5% CO2, the medium was removed, and 200 μL of a 0.5 mg mL^−1 MTT solution, diluted in RPMI, was added to each well. The plates were incubated for an additional 4 hours. Following this incubation, 160 μL of the medium was removed and replaced with 160 μL of 2-propanol. Absorbance was measured at 570 nm using a Synergy 2 Multi-Mode Reader (Biotek, Winooski, VT, USA). Cytotoxicity was determined by presenting the CC50 (the concentration of the drug that reduces cell viability by 50%) interval or by calculating the CC50 value through non-linear regression analysis using GraphPad Prism version 8.1.1 for Windows (GraphPad Software, San Diego, CA, USA). The results represent the average of at least three independent experiments.

[2] = tested on: bloodstream-form Trypanosoma brucei; assay: Activity against bloodstream-form Trypanosoma brucei (Alamar Blue growth inhibition); type: cell-based, Trypanosoma brucei (strain 427); settings: for IC50 / IC90: Trypanosoma brucei, bloodstream form; for IC50: concentration that inhibits growth by 50%, read-out: T. brucei IC50; for IC90: concentration that inhibits growth by 90%, read-out: T. brucei IC90; for S.I. (selectivity index): ratio of IC50 values obtained with L6 cells and T. brucei
Protocol: (§1) Bloodstream form T. brucei (strain 427) were cultured at 37 °C in modified Iscove's medium. Trypanocidal activity was assessed by growing parasites in microtiter plates in the presence of various drug concentrations. […] The plates were incubated for 48 hours at 37 °C and 20 μL Alamar Blue was then added to each well. After an additional overnight incubation, the fluorescence was determined using a Gemini fluorescent plate reader (Molecular Devices). Inhibition of growth was calculated by comparison with control values and IC50 and IC90 values were determined in triplicate using linear regression analysis.

[3] = tested on: L. infantum promastigotes; assay: Activity against Leishmania infantum promastigotes (resazurin assay); type: cell-based, Leishmania infantum (MHOM/MA/67/ITMAP-263); settings: for IC50: Leishmania infantum, promastigotes, 72 h, 95% CI in brackets
Protocol: Promastigotes from the L. infantum strain (MHOM/MA/67/ITMAP-263) were cultivated in 5 ml of Schneider's insect medium, which was supplemented with 10% heat-inactivated fetal bovine serum (FBS), 200 U ml^−1 of penicillin/streptomycin, 6 μg ml^−1 of phenol red, and 5 mM of HEPES. The cultures were maintained in an incubator at 27 °C and diluted to a concentration of 2 × 10^5 cells per ml every 5 days. For the assays the parasites used were equivalent to late/log with two or three days of culture.
The efficacy of the compounds against L. infantum promastigotes was evaluated using a resazurin-based assay. Parasites were added to 100 μl of serial dilutions of the compounds in supplemented complete medium at a cell density of 5 × 10^5 ml^−1. As a quality control, a dose–response curve with the antileishmanial drug miltefosine was included in all assays. The final volume of each assay was 200 μl per well, and each condition was tested in duplicate. After a 72-hour incubation under specific conditions for each parasite, 20 μl of a 0.5 mM resazurin solution was added, and the plates were incubated for an additional 4 hours under the same conditions. Fluorescence was measured at 544 nm for excitation and 590 nm for emission using a Synergy 2 Multi-Mode Reader (Biotek, Winooski, VT, USA). Results were expressed as the percentage of parasite growth inhibition compared to controls (untreated parasites) and represent the average of at least three independent experiments. The effect was evaluated by determining the IC50 value (the concentration required to inhibit 50% growth), calculated using non-linear regression curves via GraphPad Prism version 8.1.1 for Windows (GraphPad Software, San Diego, CA, USA).

T. cruzi epimastigotes = assay: Activity against Trypanosoma cruzi epimastigotes (Alamar Blue growth inhibition); type: cell-based, Trypanosoma cruzi (strain CL Brener); settings: CL Brener
Protocol: as §1, with “Trypanocidal” for “Bloodstream form T. brucei (strain 427) were cultured at 37 °C in modified Iscove's medium. Trypanocidal”, “4 days” for “48 hours”, “28” for “37”, “Blue (Biosource UK Ltd)” for “Blue”, “3 days” for “overnight”

L6 cells = assay: Cytotoxic activity against rat skeletal myoblast L6 cells (Alamar Blue); type: cell-based; settings: 120 h, cytotoxicity, 5 days
Protocol: The cytotoxicity against mammalian cells was assessed using microtitre plates. Briefly, L6 cells (a rat skeletal muscle line) were seeded at 1 × 10^4 mL^−1 in 200 μL of RPMI-1640 growth medium (with 10% fetal calf serum) containing 7 different compound concentrations in a range previously established to encompass both the IC50 and IC90 values. The plates were incubated for 5 days at 37 °C and 20 μL Alamar Blue (Biosource Ltd, Wilton, North Yorkshire England.) was then added to each well. After an additional 8 hours incubation, the fluorescence was determined using a Gemini fluorescent plate reader (Molecular Devices). Inhibition of growth was calculated by comparison with control values and IC50 and IC90 values were determined in triplicate using linear regression analysis.

[4] = tested on: T. cruzi intracellular amastigotes; assay: microbe, parasite or virus in culture; type: cell-based, Trypanosoma cruzi CL Brener PpyRE9h:mScarlet; settings: Trypanosoma cruzi, 120 h; in HeLa cells, 5 days
Protocol: Assays were performed in 96-well black (clear bottom) microtitre plates (Corning Inc.). HeLa ^† cells were seeded at 10^4 per well, incubated for 3 days, and then infected with T. cruzi CL Brener PpyRE9h : mScarlet[25] culture form trypomastigotes (1 : 1 multiplicity of infection). After 16 hours, extracellular parasites were removed by washing in growth medium (×3), test compounds were added, and the plates incubated for 5 days. Fluorescence intensities were then determined using a BMG FLUOstar Omega plate reader (ex 545 nm, em 590 nm), and the data analysed using GraphPad Prism 9.0 software. The values were expressed as IC50/90 ± SD and are the mean of triplicate experiments.

## O=C(Nc1ccc(C2C3CC4CC(C3)CC2C4)cc1)c1ccc([N+](=O)[O-])o1 (stereo not shown) [2a, N-[4-(2-Adamantyl)phenyl]-5-nitrofuran-2-carboxamide]
[1]
  CC50 at 72 h: 1.56 to 6.25 µM
[2]
  IC50: 130 ± 40 nM
  IC90: 330 ± 20 nM
  S.I. (selectivity index): 4
[3]
  IC50: 0.12 µM
T. cruzi epimastigotes
  IC50: 550 ± 50 nM
  IC90: 1200 ± 30 nM
L6 cells
  IC50: 470 ± 70 nM

## O=C(NCCc1ccc(C2C3CC4CC(C3)CC2C4)cc1)c1ccc([N+](=O)[O-])o1 (stereo not shown) [2c, N-[4-(2-Adamantyl)phenethyl]-5-nitrofuran-2-carboxamide]
[1]
  CC50 at 72 h: 3.13 to 12.5 µM
[2]
  IC50: 42 ± 8 nM
  IC90: 73 ± 8 nM
  S.I. (selectivity index): 42
[3]
  IC50: 0.05 µM
T. cruzi epimastigotes
  IC50: 280 ± 80 nM
  IC90: 1200 ± 80 nM
L6 cells
  IC50: 1800 ± 200 nM

## O=C(Cc1ccc(C23CC4CC(CC(C4)C2)C3)cc1)NCCCn1ccnc1[N+](=O)[O-] [5b, 2-[4-(1-Adamantyl)phenyl]-N-[3-(2-nitro-1H-imidazol-1-yl)propyl] acetamide]
[1]
  CC50 at 72 h: 50 to 100 µM
[3]
  IC50: 4.81 µM

## O=C(Cn1ccnc1[N+](=O)[O-])NCc1ccc(C2C3CC4CC(C3)CC2C4)cc1 (stereo not shown) [4b, N-[4-(2-Adamantyl)benzyl]-2-(2-nitro-1H-imidazol-1-yl)acetamide]
[1]
  CC50 at 72 h: > 100 µM
[3]
  IC50: > 40 µM

## O=C(CCc1ccc(C23CC4CC(CC(C4)C2)C3)cc1)NCCCn1cnc([N+](=O)[O-])n1 [6f, 3-[4-(1-Adamantyl)phenyl]-N-[3-(3-nitro-1H-1,2,4-triazol-1-yl)propyl]propanamide]
[1]
  CC50 at 72 h: 50 to 100 µM
[4]
  IC50: 2.44 ± 0.57 µM
  IC90: 8.23 ± 1.78 µM
[2]
  IC50: 140 ± 20 nM
  IC90: 280 ± 10 nM
  S.I. (selectivity index): 134
[3]
  IC50: 0.39 µM
T. cruzi epimastigotes
  IC50: 440 ± 20 nM
  IC90: 910 ± 10 nM
L6 cells
  IC50: 19000 ± 2000 nM

## O=C(Cn1ccnc1[N+](=O)[O-])NCc1ccc(C23CC4CC(CC(C4)C2)C3)cc1 [3b, N-[4-(1-Adamantyl)benzyl]-2-(2-nitro-1H-imidazol-1-yl)acetamide]
[1]
  CC50 at 72 h: 50 to 100 µM
[3]
  IC50: 13.8 µM

## O=C(NCCn1cnc([N+](=O)[O-])n1)c1ccc(C23CC4CC(CC(C4)C2)C3)cc1 [6a, 4-(1-Adamantyl)-N-[2-(3-nitro-1H-1,2,4-triazol-1-yl)ethyl] benzamide]
[1]
  CC50 at 72 h: 25 to 50 µM
[4]
  IC50: 4.88 ± 0.51 µM
  IC90: 21.4 ± 3.4 µM
[2]
  IC50: 230 ± 50 nM
  IC90: 360 ± 30 nM
  S.I. (selectivity index): 120
[3]
  IC50: 0.74 µM
T. cruzi epimastigotes
  IC50: 540 ± 20 nM
  IC90: 1200 ± 10 nM
L6 cells
  IC50: 28000 ± 7000 nM

## O=C(Nc1ccc(C23CC4CC(CC(C4)C2)C3)cc1)c1ccc([N+](=O)[O-])o1 [7a, N-[4-(1-Adamantyl)phenyl]-5-nitrofuran-2-carboxamide]
[1]
  CC50 at 72 h: 6.25 to 25 µM
[2]
  IC50: 91 ± 5 nM
  IC90: 220 ± 10 nM
[3]
  IC50: 0.76 µM
T. cruzi epimastigotes
  IC50: > 25 nM
  IC90: > 25 nM
L6 cells
  IC50: < 30 nM

## O=C(Cn1ccnc1[N+](=O)[O-])NCCc1ccc(C2C3CC4CC(C3)CC2C4)cc1 (stereo not shown) [4c, N-[4-(2-Adamantyl)phenethyl]-2-(2-nitro-1H-imidazol-1-yl)acetamide]
[1]
  CC50 at 72 h: > 50 µM
[3]
  IC50: 37.9 µM
[3]; THP-1 CC50 / L. infantum promastigote IC50
  SI (promastigotes) CC50/Li IC50: SI > 1
